According to ChEMBL document CHEMBL1201862, “PubChem BioAssay data set” (2004):
“And” between values parts separate entries of the source, which are not always exact repeats. Equal values may be shown once.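 Where inhibition never reached the appropriate level, the endpoint shown equals the highest concentration tested. Otherwise, values were interpolated linearly from a five-concentration, 48-hour dose response in 96-well plates. At the GI50, growth is halved.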 The source made the active and inactive calls. Rule as the data show it: active = GI50 up to about 1.1 µM and inactive = higher.

Columns and labels:
Assay in all cases: NCI-60 cell line screen, 48 h
786-0 = system: 786-0
A498 = system: A498
A549 = system: A549
ACHN = system: ACHN
CAKI-1 = system: CAKI-1
CCRF-CEM = system: CCRF-CEM
COLO 205 = system: COLO 205
DU-145 = system: DU-145
EKVX = system: EKVX
HCT-116 = system: HCT-116
HL-60 = system: HL-60
HOP-62 = system: HOP-62
HOP-92 = system: HOP-92
HT-29 = system: HT-29
Hs-578T = system: Hs-578T
IGROV-1 = system: IGROV-1
K562 = system: K562
KM12 = system: KM12
LOX IMVI = system: LOX IMVI
M14 = system: M14
MCF7 = system: MCF7
MDA-MB-231 = system: MDA-MB-231
MDA-MB-435 = system: MDA-MB-435
MDA-N = system: MDA-N
MOLT-4 = system: MOLT-4
Malme-3M = system: Malme-3M
NCI-H226 = system: NCI-H226
NCI-H522 = system: NCI-H522
OVCAR-3 = system: OVCAR-3
OVCAR-4 = system: OVCAR-4
OVCAR-5 = system: OVCAR-5
OVCAR-8 = system: OVCAR-8
PC-3 = system: PC-3
RPMI-8226 = system: RPMI-8226
RXF 393 = system: RXF 393
SF-268 = system: SF-268
SF-295 = system: SF-295
SF-539 = system: SF-539
SK-MEL-28 = system: SK-MEL-28
SK-MEL-2 = system: SK-MEL-2
SK-MEL-5 = system: SK-MEL-5
SK-OV-3 = system: SK-OV-3
SN12C = system: SN12C
SNB-19 = system: SNB-19
SNB-75 = system: SNB-75
SR = system: SR
SW-620 = system: SW-620
T47D = system: T47D
TK-10 = system: TK-10
U-251 = system: U-251
UACC-257 = system: UACC-257
UO-31 = system: UO-31
HCC 2998 = system: HCC 2998
HCT-15 = system: HCT-15
NCI-H23 = system: NCI-H23
NCI-H460 = system: NCI-H460
NCI/ADR-RES = system: NCI/ADR-RES

`COc1ccc2c(O)c1-c1c(OC)ccc(c1O)SSc1ccc(OC)c(c1O)-c1c(OC)ccc(c1O)SS2` was tested. Which GI50 (786-0) did it give?
Its GI50 is 40.6 µM (inactive).

What about the GI50 (A498) of the same compound?
The GI50 was > 100 µM (inactive).

And the GI50 (A549)?
The GI50 was 24.5 µM (inactive).

What about the GI50 (ACHN) of the same compound?
The GI50 was 5.32 µM (inactive).

What about the GI50 (CAKI-1) of the same compound?
The GI50 was > 100 µM (inactive).

What about the GI50 (CCRF-CEM) of the same compound?
Its GI50 is 4.56 µM (inactive).

And the GI50 (COLO 205)?
Its GI50 is 19.9 µM (inactive).

And the GI50 (DU-145)?
Its GI50 is 29 µM (inactive).

What about the GI50 (EKVX) of the same compound?
The GI50 was 7.87 µM (inactive).

And the GI50 (HCT-116)?
The GI50 was 48.2 µM (inactive).

And the GI50 (HL-60)?
Its GI50 is 8.15 µM (inactive).

What about the GI50 (HOP-62) of the same compound?
The GI50 was > 100 µM (inactive).

And the GI50 (HOP-92)?
The GI50 was 23 µM (inactive).

And the GI50 (HT-29)?
The GI50 was > 100 µM (inactive).

And the GI50 (Hs-578T)?
The GI50 was 54.8 µM (inactive).

And the GI50 (IGROV-1)?
Its GI50 is 23 µM (inactive).

What about the GI50 (K562) of the same compound?
The GI50 was 5.2 µM (inactive).

What about the GI50 (KM12) of the same compound?
Its GI50 is 37.2 µM (inactive).

And the GI50 (LOX IMVI)?
The GI50 was 26.7 µM (inactive).

And the GI50 (M14)?
The GI50 was > 100 µM (inactive).

And the GI50 (MCF7)?
Its GI50 is > 100 µM (inactive).

And the GI50 (MDA-MB-231)?
The GI50 was 44.3 µM (inactive).

And the GI50 (MDA-MB-435)?
The GI50 was > 100 µM (inactive).

And the GI50 (MDA-N)?
Its GI50 is > 100 µM (inactive).

What about the GI50 (MOLT-4) of the same compound?
The GI50 was > 100 µM (inactive).

What about the GI50 (Malme-3M) of the same compound?
Its GI50 is 51.2 µM (inactive).

And the GI50 (NCI-H226)?
The GI50 was 29.9 µM (inactive).

And the GI50 (NCI-H522)?
Its GI50 is 3.58 µM (inactive).

And the GI50 (OVCAR-3)?
Its GI50 is 20.6 µM (inactive).

And the GI50 (OVCAR-4)?
The GI50 was 12.1 µM (inactive).

And the GI50 (OVCAR-5)?
The GI50 was 66.4 µM (inactive).

What about the GI50 (OVCAR-8) of the same compound?
The GI50 was 32.9 µM (inactive).

And the GI50 (PC-3)?
The GI50 was 5.42 µM (inactive).

And the GI50 (RPMI-8226)?
The GI50 was 1.99 µM (inactive).

What about the GI50 (RXF 393) of the same compound?
Its GI50 is 16.1 µM (inactive).

What about the GI50 (SF-268) of the same compound?
Its GI50 is 27.4 µM (inactive).

What about the GI50 (SF-295) of the same compound?
Its GI50 is > 100 µM (inactive).

And the GI50 (SF-539)?
Its GI50 is 4.45 µM (inactive).

And the GI50 (SK-MEL-28)?
Its GI50 is 34.4 µM (inactive).

What about the GI50 (SK-MEL-2) of the same compound?
Its GI50 is > 100 µM (inactive).

What about the GI50 (SK-MEL-5) of the same compound?
Its GI50 is 30 µM (inactive).

And the GI50 (SK-OV-3)?
Its GI50 is > 100 µM (inactive).

What about the GI50 (SN12C) of the same compound?
Its GI50 is > 100 µM (inactive).

And the GI50 (SNB-19)?
The GI50 was 60.4 µM (inactive).

And the GI50 (SNB-75)?
Its GI50 is 36.7 µM (inactive).

And the GI50 (SR)?
The GI50 was 4.27 µM (inactive).

And the GI50 (SW-620)?
Its GI50 is 16 µM (inactive).

What about the GI50 (T47D) of the same compound?
Its GI50 is 20.8 µM (inactive).

And the GI50 (TK-10)?
Its GI50 is 65.8 µM (inactive).

And the GI50 (U-251)?
The GI50 was 19.2 µM (inactive).

What about the GI50 (UACC-257) of the same compound?
The GI50 was > 100 µM (inactive).

And the GI50 (UO-31)?
Its GI50 is 4.21 µM (inactive).

Which GI50 (786-0) does the source give for `COc1ccc(COC(=O)NCC(=O)NC(C)C(=O)NC(Cc2ccccc2)C(=O)OCc2ccccc2)cc1` (stereo not given) here?
The GI50 was 20 µM (inactive) and 29.2 µM (inactive).

And the GI50 (A498)?
Its GI50 is 38.8 µM (inactive) and 22.5 µM (inactive).

What about the GI50 (ACHN) of the same compound?
The GI50 was 21.3 µM (inactive) and 19.8 µM (inactive).

And the GI50 (CAKI-1)?
The GI50 was 20 µM (inactive) and 21.1 µM (inactive).

What about the GI50 (CCRF-CEM) of the same compound?
Its GI50 is 21.5 µM (inactive) and 13.6 µM (inactive).

What about the GI50 (COLO 205) of the same compound?
The GI50 was 24.4 µM (inactive) and 24.2 µM (inactive).

What about the GI50 (HCC 2998) of the same compound?
Its GI50 is 20.9 µM (inactive) and 14.8 µM (inactive).

What about the GI50 (HCT-116) of the same compound?
Its GI50 is 33.5 µM (inactive) and 42.5 µM (inactive).

What about the GI50 (HCT-15) of the same compound?
The GI50 was > 100 µM and 61.2 µM.

And the GI50 (HOP-62)?
Its GI50 is 24.7 µM (inactive) and 22.3 µM (inactive).

What about the GI50 (HT-29) of the same compound?
Its GI50 is 26.4 µM (inactive) and 18.4 µM (inactive).

What about the GI50 (Hs-578T) of the same compound?
Its GI50 is 23.9 µM (inactive) and 25.5 µM (inactive).

And the GI50 (IGROV-1)?
The GI50 was 45.2 µM (inactive) and 29.8 µM (inactive).

What about the GI50 (K562) of the same compound?
The GI50 was 26.5 µM (inactive) and 38.7 µM (inactive).

And the GI50 (LOX IMVI)?
Its GI50 is 28.1 µM (inactive) and 19.4 µM (inactive).

What about the GI50 (MCF7) of the same compound?
The GI50 was 17 µM (inactive).

What about the GI50 (MDA-MB-231) of the same compound?
Its GI50 is 20 µM (inactive) and 25.6 µM (inactive).

And the GI50 (MDA-MB-435)?
Its GI50 is 27.6 µM (inactive) and 22.1 µM (inactive).

And the GI50 (MDA-N)?
The GI50 was 25.9 µM (inactive) and 27.4 µM (inactive).

What about the GI50 (Malme-3M) of the same compound?
The GI50 was 19.2 µM (inactive) and 36.6 µM (inactive).

What about the GI50 (NCI-H226) of the same compound?
Its GI50 is 27.3 µM (inactive) and 34.9 µM (inactive).

And the GI50 (NCI-H23)?
Its GI50 is 37.9 µM (inactive).

And the GI50 (NCI-H460)?
Its GI50 is 10.8 µM (inactive).

What about the GI50 (NCI-H522) of the same compound?
Its GI50 is 12.2 µM (inactive) and 16.5 µM (inactive).

And the GI50 (NCI/ADR-RES)?
Its GI50 is > 100 µM (inactive) and 67.1 µM (inactive).

What about the GI50 (OVCAR-3) of the same compound?
The GI50 was 22.1 µM (inactive) and 24.4 µM (inactive).

And the GI50 (OVCAR-4)?
Its GI50 is 34 µM (inactive) and 22.3 µM (inactive).

And the GI50 (OVCAR-8)?
Its GI50 is > 100 µM (inactive) and 74.5 µM (inactive).

What about the GI50 (RPMI-8226) of the same compound?
The GI50 was 29.6 µM (inactive) and 26.7 µM (inactive).

And the GI50 (RXF 393)?
The GI50 was 16.1 µM (inactive).

What about the GI50 (SF-268) of the same compound?
Its GI50 is 24.3 µM (inactive) and 35 µM (inactive).

What about the GI50 (SF-295) of the same compound?
The GI50 was 21.1 µM (inactive) and 22.3 µM (inactive).

And the GI50 (SK-MEL-28)?
The GI50 was 18.9 µM (inactive) and 19.4 µM (inactive).

What about the GI50 (SN12C) of the same compound?
Its GI50 is 24.2 µM (inactive) and 31.5 µM (inactive).

And the GI50 (SR)?
The GI50 was 28.3 µM (inactive) and 25 µM (inactive).

What about the GI50 (SW-620) of the same compound?
Its GI50 is 33.3 µM (inactive) and 45.8 µM (inactive).

What about the GI50 (T47D) of the same compound?
Its GI50 is 19.8 µM (inactive) and 30.1 µM (inactive).

What about the GI50 (U-251) of the same compound?
Its GI50 is 22.2 µM (inactive) and 21.9 µM (inactive).
